According to patent US20260232678A1, “Nasal Spray for Phosphodiesterase Inhibitors” (Cyrano Therapeutics, Inc., priority 2022, published 2026):

Experiments:
[1] = cited from earlier work
[2] = tested on: chemosensory dysfunction associated with Parkinson's disease; assay: Treatment of Parkinson's disease chemosensory dysfunction; type: in vivo, human; settings: about 0.4 ml per day of 3.1 mg/ml theophylline, nasal spray twice daily in each naris, 7 days
Protocol: An adult human subject was treated for chemosensory dysfunction associated with Parkinson's disease. […] The subject was administered about 0.4 ml per day of a liquid composition comprising theophylline at a concentration of 3.1 mg/ml in a nasal spray device described herein. The subject administered the nasal spray twice daily in each naris.

[3] = tested on: phantosmia and phantogeusia; assay: Treatment of phantosmia in a subject; type: in vivo; settings: thioridazine composition in nasal spray device, 3× daily in each naris
Source text: A subject is admitted to a clinic for phantosmia and phantogeusia. The subject is prescribed a thioridazine composition in a nasal spray device described herein. The subject administers the nasal spray in an effective dose 3× daily in each naris. The nasal spray is characterized by a spray containing a D50 of about 15 μm to about 24 μm, a D90 of from about 30 μm to about 50 μm and where less than about 3% of the droplets in the plume of a spray have a size of less than about 10 μm.

Compound | solubility in ethanol ([1]; ethanol) [mg/mL] | solubility in water ([1]; water) [mg/mL] | ability to taste and smell [2] | symptoms of the phantosmia and phantogeusia [3]
Cn1c(=O)c2[nH]cnc2n(C)c1=O [Theophylline, theophylline] | 14 to 15 | 7 to 8 | regained their ability to taste and smell | 
CSc1ccc2c(c1)N(CCC1CCCCN1C)c1ccccc1S2 (stereo not shown) [thioridazine] |  |  |  | reduced symptoms
